In PMC12461607, “Profiling polyamine–protein interactions in live cells through photoaffinity labeling” (RSC Chemical Biology, 2025):

Target: T1, TUBA1C (Homo sapiens, UniProt Q9BQE3)
T1 construct: endogenous protein in live HeLa cells, no tag; modified C-terminal peptides 423-449 and 431-449
Experiment: live-cell photoaffinity labelling, biotin enrichment, TMT LC-MS/MS
Format: cell-based
Settings: covalent after UV 365 nm; live HeLa cells; C-terminal acidic region

T1 sequence (Q9BQE3 whole entry): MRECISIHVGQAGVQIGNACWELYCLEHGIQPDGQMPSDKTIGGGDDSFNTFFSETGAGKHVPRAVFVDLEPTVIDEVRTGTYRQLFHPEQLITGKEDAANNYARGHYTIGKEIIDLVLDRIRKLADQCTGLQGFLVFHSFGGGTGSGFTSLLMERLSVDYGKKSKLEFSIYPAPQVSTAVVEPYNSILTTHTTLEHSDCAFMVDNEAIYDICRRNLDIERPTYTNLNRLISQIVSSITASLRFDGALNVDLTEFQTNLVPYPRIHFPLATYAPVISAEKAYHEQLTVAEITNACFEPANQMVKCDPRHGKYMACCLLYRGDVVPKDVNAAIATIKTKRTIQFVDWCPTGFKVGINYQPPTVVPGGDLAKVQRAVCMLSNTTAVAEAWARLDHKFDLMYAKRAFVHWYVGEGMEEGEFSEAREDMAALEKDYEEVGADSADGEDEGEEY

Row | live-cell photoaffinity labelling, biotin enrichment, TMT LC-MS/MS | SMILES
1 | several tubulins (including TUBA1C) | C#CCCC1(CCNCCCCNCCCN)N=N1 [compound 4, spermidine analog 4]
2 | several tubulins (including TUBA1C) | C#CCCC1(CCNCCCNCCCCN)N=N1 [compound 5, spermidine analog 5]
